# Source: patent US4774232A, “Bile-substituting method of treatment for the promotion of fat digestion” (Chinoin Gyogyszer Es Vegyeszeti Termak Ek Gyara Rt, priority 1985, dated 1988)
# Tests used:
# intact rats = assay: Lipid absorption in intact rats after oral vegetable oil with DIMEB; type: in vivo; conditions: for Plasma triglyceride concentration / Free fatty acid concentration in the plasma: normal rats; for Plasma triglyceride concentration: 2 ml vegetable oil + 50 mg DIMEB oral; for Free fatty acid concentration in the plasma: 2 ml vegetable oil + DIMEB oral
# Protocol: The effect of DIMEB on the absorption of a vegetable oil was investigated in intact rats. The aim of this experiment was to elucidate whether the emulsification and intestinal absorption of the vegetable oil were stimulated by DIMEB in addition to the physiological bile functions. […] Thereafter, the triglyceride and free fatty acid concentration of the blood plasma were examined at various intervals. (Tables II and III). The triglyceride concentration of the plasma was determined by using the method of E. Van Handel [Clin. […] G. Dumcombe [Biochem.
# [1] = test system: bile duct-ligated rabbits; assay: Substitution of the bile in bile duct-ligated rabbits (plasma triglyceride); type: in vivo, rabbits (Orychtolagus cuniculus); conditions: for Plasma triglyceride concentration: rabbits after bile duct ligature
# Protocol: The triglyceride concentration of the plasma was determined by using the method of E. Van Handel [Clin. Chem.. 7, 249 (1961)], whereas the concentration of the free fatty acids was measured according to W. G. Dumcombe [Biochem. J. 88, 7 (1963)].
# The experimental animals were prevented in using their own bile for digestion of lipids by ligating their bile duct. Triglyceride concentration of the blood plasma was investigated after oral administration of lipids under normal pancreas secretion.
# The experimental rabbits (Orychtolagus cuniculus) were kept at a standard food fo 10 days before the experiment. The organic material composition of the animal food was as follows:
# The energy content of 100 g of the food amounted to […]. The animals were starved for 12 to 24 hours before the surgical operations but received water ad libitum. Within the same experimental series, rabbits of the same sex with a body weight of 2500 to 3000 g were used and the surgical operations were concurrently carried out. Pseudo-operated animals were used as controls. The operated experimental animals were used for the investigations after 48 hours. The test substances were orally administered to the animals through a gastric tube. The blood samples were taken from the auricular marginal vene.
# In the first series of experiments, the first group of animals were given 3 ml of sunflower oil, the second group of animals were given 3 ml of sunflower oil and 200 mg of DIMEB dissolved in 3 ml of water. The control (speudo-operated) animals received 6 ml of water.
# It is known that the digestion of the fats is a slower process than that of the oils. Thus, in the second series of experiments, the changes of the plasma triglyceride concentration of bile duct-ligated rabbits were followed after the oral administration of 5 ml of swine fat and 5 ml of swine fat together with 300 mg of DIMEB, respectively. The control group was given 5 ml of water (Table V). The quantity of the triglycerides was increased by about 100 percent as compared to the other two groups within one hour following the treatment. This tendency permanently remained during the experimental period lasting 6 hours.
# bile-deficient rats = assay: Substitution of the bile in rats: 5-day fat treatment, faecal, plasma and liver lipids; type: in vivo, rats (Etymis rattus var. albino)
# Protocol: In an other series of experiments, the total lipid content of the faeces discharged by bile-deficient rats was studied.
# The oral treatment was started with the daily administration of 1 ml of swine fat or 1 ml of swine fat together with 150 mg of DIMEB, respectively, in the 72nd hour following the ligature. The treatment was continued for 5 days. The faeces was collected in the first 4 days of the treatment. In the 4th hour following the treatment on the 5th day, the experimental animals were decapitated and their samples were worked up. […] An extraordinarily high amount of lipids were eliminated with the faeces of the animals fed with fat. […] Nearly 100 percent of the introduced fat was absorbed under the effect of DIMEB.
# A significant deviation was observed between the groups treated with fat or with fat together with DIMEB, respectively. […] The triglyceride concentration was restored in this group to the control value by the treatment with fat. A significant increase in the triglyceride concentration was induced by the treatment with fat together with DIMEB in comparison to the former group.
# Water solubility = type: physicochemical
# [2] = bile acid-deficient rats, daily 1 ml fat + 150 mg DIMEB, treatment lasting 5 days
smiles,measurement,setting,value
"COC[C@H]1O[C@@H]2O[C@H]3[C@H](O)[C@@H](OC)[C@@H](O[C@H]4[C@H](O)[C@@H](OC)[C@@H](O[C@H]5[C@H](O)[C@@H](OC)[C@@H](O[C@H]6[C@H](O)[C@@H](OC)[C@@H](O[C@H]7[C@H](O)[C@@H](OC)[C@@H](O[C@H]8[C@H](O)[C@@H](OC)[C@@H](O[C@H]1[C@H](O)[C@H]2OC)O[C@@H]8COC)O[C@@H]7COC)O[C@@H]6COC)O[C@@H]5COC)O[C@@H]4COC)O[C@@H]3COC [DIMEB, heptakis(2,6-di-O-methyl)-β-cyclodextrin]",Increase of plasma triglyceride concentration,"intact rats; intact rats, oil + 50 mg DIMEB, 4th hour",more than 100%
same,Plasma triglyceride concentration,intact rats; Hour 1,44 ± 6 mg/100 ml
same,Plasma triglyceride concentration,intact rats; Hour 2.5,61 ± 18 mg/100 ml
same,Plasma triglyceride concentration,intact rats; Hour 4,121 ± 7 mg/100 ml
same,Plasma triglyceride concentration,intact rats; Hour 6,122 ± 15 mg/100 ml
same,Free fatty acid concentration in the plasma,intact rats; Hour 1,326 ± 15 mg/100 ml
same,Free fatty acid concentration in the plasma,intact rats; Hour 2.5,494 ± 183 mg/100 ml
same,Free fatty acid concentration in the plasma,intact rats; Hour 4,641 ± 126 mg/100 ml
same,Free fatty acid concentration in the plasma,intact rats; Hour 6,347 ± 65 mg/100 ml
same,Plasma triglyceride concentration compared with the group treated with oil alone,"[1]; bile duct-ligated rabbits, 3 ml sunflower oil + 200 mg DIMEB, 6th hour",nearly three-fold
same,Increase of the quantity of plasma triglycerides compared to the other two groups,"[1]; bile duct-ligated rabbits, 5 ml swine fat + 300 mg DIMEB, within one hour following the treatment",about 100%
same,Plasma triglyceride concentration,"[1]; 3 ml sunflower oil + 200 mg DIMEB oral, Hour 0",52 ± 19 mg/100 ml
same,Plasma triglyceride concentration,"[1]; 3 ml sunflower oil + 200 mg DIMEB oral, Hour 1",96 ± 32 mg/100 ml
same,Plasma triglyceride concentration,"[1]; 3 ml sunflower oil + 200 mg DIMEB oral, Hour 2.5",87 ± 30 mg/100 ml
same,Plasma triglyceride concentration,"[1]; 3 ml sunflower oil + 200 mg DIMEB oral, Hour 4",61 ± 14 mg/100 ml
same,Plasma triglyceride concentration,"[1]; 3 ml sunflower oil + 200 mg DIMEB oral, Hour 6",125 ± 3 mg/100 ml
same,Plasma triglyceride concentration,"[1]; 5 ml swine fat + 300 mg DIMEB oral, Hour 0",58 ± 19 mg/100 ml
same,Plasma triglyceride concentration,"[1]; 5 ml swine fat + 300 mg DIMEB oral, Hour 1",104 ± 30 mg/100 ml
same,Plasma triglyceride concentration,"[1]; 5 ml swine fat + 300 mg DIMEB oral, Hour 2.5",92 ± 26 mg/100 ml
same,Plasma triglyceride concentration,"[1]; 5 ml swine fat + 300 mg DIMEB oral, Hour 4",83 ± 25 mg/100 ml
same,Plasma triglyceride concentration,"[1]; 5 ml swine fat + 300 mg DIMEB oral, Hour 6",125 ± 3 mg/100 ml
same,Fat discharge (total lipid content of the faeces),"bile-deficient rats; bile acid-deficient rats, daily 1 ml fat + 150 mg DIMEB for 5 days, faeces of first 4 days",6.16 ± 2.37 g/100 g
same,Liver triglycerides,bile-deficient rats; [2],9.1 ± 2.2 mg/100 ml
same,Plasma total lipids,bile-deficient rats; [2],688.7 ± 95.8 mg/100 ml
same,Plasma triglycerides,bile-deficient rats; [2],71.9 ± 19.1 mg/100 ml
same,Introduced fat absorbed,"bile-deficient rats; bile-deficient rats, daily 1 ml swine fat + 150 mg DIMEB",~100%
same,Water solubility,Water solubility,very high water solubility
